31 compounds from patent US8450332B2, “LIMK2 inhibitors, compositions comprising them, and methods of their use” (Lexicon Pharmaceuticals, Inc., priority 2008, dated 2013) can be followed below.

T1 sequence (P53671 whole entry): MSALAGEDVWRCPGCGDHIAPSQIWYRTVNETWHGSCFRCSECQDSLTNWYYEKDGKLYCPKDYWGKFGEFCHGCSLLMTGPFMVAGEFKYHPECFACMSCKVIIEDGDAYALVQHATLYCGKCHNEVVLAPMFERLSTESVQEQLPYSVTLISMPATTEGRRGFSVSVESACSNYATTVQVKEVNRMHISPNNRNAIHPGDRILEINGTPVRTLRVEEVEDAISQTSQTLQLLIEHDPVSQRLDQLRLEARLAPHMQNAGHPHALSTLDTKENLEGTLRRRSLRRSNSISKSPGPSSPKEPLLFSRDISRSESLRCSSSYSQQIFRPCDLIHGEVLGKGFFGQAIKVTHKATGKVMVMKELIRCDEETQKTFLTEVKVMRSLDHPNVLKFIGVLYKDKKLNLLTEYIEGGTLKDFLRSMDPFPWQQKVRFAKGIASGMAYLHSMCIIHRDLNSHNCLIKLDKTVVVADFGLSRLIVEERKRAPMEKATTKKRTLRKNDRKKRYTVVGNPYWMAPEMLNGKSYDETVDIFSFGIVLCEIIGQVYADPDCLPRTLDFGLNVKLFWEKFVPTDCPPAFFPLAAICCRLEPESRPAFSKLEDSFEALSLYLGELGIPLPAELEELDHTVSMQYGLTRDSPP

The assay addresses T1, LIMK2 (Homo sapiens, UniProt P53671).
T1 construct: His tag (histidine-tagged; pFastBacHT vector); made in house; host or cells: Sf9 insect cells (BAC-to-BAC baculovirus system)
As to the kind of experiment: In vitro LIMK2 inhibition assay (33P incorporation into myelin basic protein flash plates). It is filed as biochemical. The method, then: Using the procedures described herein and methods known in the art, the additional compounds listed below in Table 1 were prepared. The LIMK2 IC50 data that is provided below for some of the compounds was determined using the assay described in Example 32.
An in vitro assay used to identify LIMK2 inhibitors was developed. The analytical readout was the incorporation of ^33P from ATP substrate into immobilized myelin basic protein coated flash plates (Perkin Elmer Biosciences), which were counted on a scintillation counter equipped with a plate reader (TopCount, Packard Bioscience, Meriden, Conn.). Using 384 well flat MBP flashplates, total assay volume was 50 μl. The HTS program utilized a Biomek FX for dilution.
For each assay, the ingredients and conditions were as follows: 200 ng of enzyme was incubated in assay buffer (1× assay buffer contains 30 mM HEPES (pH 8.0), 5 mM DTT, and 10 mM MgCl2), 10 μM ATP, 0.2 μCi [gamma-^33P]-ATP and 10 μM of potential inhibitory compound. The reaction was incubated at room temperature for 60 minutes, washed 3 times with 75 μl of stop/wash buffer (1× stop/was buffer contains 50 mM EDTA and 20 mM Tris (pH 7.4)), and then the plates were read on the scintillation counter. Different concentrations of staurosporine (400 nM, 200 nM, 100 nM and 50 nM; purchased from BIOMOL (Plymouth Meeting, Pa.)) were used as controls on each plate.
As for `COC(=O)NCC1(C(=O)Nc2cccc(OC(=O)N(C)C)c2)CCN(c2ncnc3[nH]cc(C)c23)CC1` [3-(4-((methoxycarbonylaminomethyl)-1-(5-methyl-7H-pyrrolo[2,3-d]pyrimidin-4-yl)piperidine-4-carboxamido)phenyl dimethylcarbamate], the half-maximal inhibitory concentration (IC50) is < 250 nM.

`CC(=O)NCC1(C(=O)Nc2cccc(OC(=O)N(C)C)c2)CCN(c2ncnc3[nH]cc(C)c23)CC1` [3-(4-(acetamidomethyl)-1-(5-methyl-7H-pyrrolo[2,3-d]pyrimidin-4-yl)piperidine-4-carboxamido)phenyl dimethylcarbamate]: the IC50 was < 250 nM.

As for `CCN(CC)C(=O)Oc1cccc(NC(=O)C2(CN)CCN(c3ncnc4[nH]cc(C)c34)CC2)c1` [3-(4-(aminomethyl)-1-(5-methyl-7H-pyrrolo[2,3-d]pyrimidin-4-yl)piperidine-4-carboxamido)phenyl diethylcarbamate], the IC50 is < 250 nM.

With `Cc1c[nH]c2ncnc(N3CCC(CN)(C(=O)Nc4cccc(OC(=O)N5CCCC5)c4)CC3)c12` [3-(4-(aminomethyl)-1-(5-methyl-7H-pyrrolo[2,3-d]pyrimidin-4-yl)piperidine-4-carboxamido)phenyl pyrrolidine-1-carboxylate], the IC50 was < 250 nM.

On to `Cc1c[nH]c2ncnc(N3CCC(CN=[N+]=[N-])(C(=O)Nc4cccc(OC(=O)N(C)C)c4)CC3)c12` [3-(4-(azidomethyl)-1-(5-methyl-7H-pyrrolo[2,3-d]pyrimidin-4-yl)piperidine-4-carboxamido)phenyl dimethylcarbamate], for which the IC50 was < 250 nM.

Turning to `C=CCC1(C(=O)Nc2cccc(OC(=O)N(C)C)c2)CCN(c2ncnc3[nH]cc(C)c23)CC1` [3-(4-allyl-1-(5-methyl-7H-pyrrolo[2,3-d]pyrimidin-4-yl)piperidine-4-carboxamido)phenyl dimethylcarbamate], the IC50 was < 250 nM.

On to `Cc1c[nH]c2ncnc(N3CCC(C#N)(C(=O)Nc4cccc(OC(=O)N(C)C)c4)CC3)c12` [3-(4-cyano-1-(5-methyl-7H-pyrrolo[2,3-d]pyrimidin-4-yl)piperidine-4-carboxamido)phenyl dimethylcarbamate], for which the IC50 is < 250 nM.

In the case of `Cc1c[nH]c2ncnc(N3CCC(C(=O)Nc4cccc(OC(=O)N(C)C)c4)(C(C)C)CC3)c12` [3-(4-isopropyl-1-(5-methyl-7H-pyrrolo[2,3-d]pyrimidin-4-yl)piperidine-4-carboxamido)phenyl dimethylcarbamate], the IC50 is < 250 nM.

Take `Cc1c[nH]c2ncnc(N3CCC(C)(C(=O)Nc4cccc(OC(=O)N5CCOCC5)c4)CC3)c12` [3-(4-methyl-1-(5-methyl-7H-pyrrolo[2,3-d]pyrimidin-4-yl)piperidine-4-carboxamido)phenyl morpholine-4-carboxylate]: the IC50 is < 250 nM.

As for `CNc1nc2ccc(NC(=O)C3(CN)CCN(c4ncnc5[nH]cc(C)c45)CC3)cc2o1` [4-(aminomethyl)-1-(5-methyl-7H-pyrrolo[2,3-d]pyrimidin-4-yl)-N-(2-(methylamino)benzo[d]oxazol-6-yl)piperidine-4-carboxamide], the IC50 was < 500 nM.

Regarding `Cc1c[nH]c2ncnc(N3CCC(CN)(C(=O)Nc4cccc(-c5cnco5)c4)CC3)c12` [4-(aminomethyl)-1-(5-methyl-7H-pyrrolo[2,3-d]pyrimidin-4-yl)-N-(3-(oxazol-5-yl)phenyl)piperidine-4-carboxamide], the IC50 is < 250 nM.

With `Cc1c[nH]c2ncnc(N3CCC(CN)(C(=O)Nc4cccc(C(F)(F)F)c4)CC3)c12` [4-(aminomethyl)-1-(5-methyl-7H-pyrrolo[2,3-d]pyrimidin-4-yl)-N-(3-(trifluoromethyl)phenyl)piperidine-4-carboxamide], the IC50 is < 250 nM.

`Cc1cccc(NC(=O)C2(CN)CCN(c3ncnc4[nH]cc(C)c34)CC2)c1` [4-(aminomethyl)-1-(5-methyl-7H-pyrrolo[2,3-d]pyrimidin-4-yl)-N-m-tolylpiperidine-4-carboxamide]: the IC50 was < 250 nM.

In the case of `Cc1c[nH]c2ncnc(N3CCC(CN)(C(=O)Nc4ccc5nc(N(C)C)oc5c4)CC3)c12` [4-(aminomethyl)-N-(2-(dimethylamino)benzo[d]oxazol-6-yl)-1-(5-methyl-7H-pyrrolo[2,3-d]pyrimidin-4-yl)piperidine-4-carboxamide], the IC50 is < 500 nM.

With `Cc1c[nH]c2ncnc(N3CCC(CN)(C(=O)Nc4cccc(OCC(=O)N(C)C)c4)CC3)c12` [4-(aminomethyl)-N-(3-(2-(dimethylamino)-2-oxoethoxy)phenyl)-1-(5-methyl-7H-pyrrolo[2,3-d]pyrimidin-4-yl)piperidine-4-carboxamide], the IC50 was < 250 nM.

Turning to `COCCOc1cccc(NC(=O)C2(CN)CCN(c3ncnc4[nH]cc(C)c34)CC2)c1` [4-(aminomethyl)-N-(3-(2-methoxyethoxy)phenyl)-1-(5-methyl-7H-pyrrolo[2,3-d]pyrimidin-4-yl)piperidine-4-carboxamide], the IC50 was < 250 nM.

Consider `Cc1c[nH]c2ncnc(N3CCC(CN)(C(=O)Nc4cccc(C(=O)N(C)C)c4)CC3)c12` [4-(aminomethyl)-N-(3-(dimethylcarbamoyl)phenyl)-1-(5-methyl-7H-pyrrolo[2,3-d]pyrimidin-4-yl)piperidine-4-carboxamide], for which the IC50 is < 250 nM.

As for `Cc1c[nH]c2ncnc(N3CCC(CN)(C(=O)Nc4cccc(C(=O)NC(C)C)c4)CC3)c12` [4-(aminomethyl)-N-(3-(isopropylcarbamoyl)phenyl)-1-(5-methyl-7H-pyrrolo[2,3-d]pyrimidin-4-yl)piperidine-4-carboxamide], the IC50 was < 250 nM.

As for `Cc1c[nH]c2ncnc(N3CCC(CN)(C(=O)Nc4cccc(Br)c4)CC3)c12` [4-(aminomethyl)-N-(3-bromophenyl)-1-(5-methyl-7H-pyrrolo[2,3-d]pyrimidin-4-yl)piperidine-4-carboxamide], the IC50 is < 250 nM.

Consider `Cc1c[nH]c2ncnc(N3CCC(CN)(C(=O)Nc4cccc(Cl)c4)CC3)c12` [4-(aminomethyl)-N-(3-chlorophenyl)-1-(5-methyl-7H-pyrrolo[2,3-d]pyrimidin-4-yl)piperidine-4-carboxamide], for which the IC50 was < 250 nM.

On to `Cc1c[nH]c2ncnc(N3CCC(CN)(C(=O)Nc4cccc(C#N)c4)CC3)c12` [4-(aminomethyl)-N-(3-cyanophenyl)-1-(5-methyl-7H-pyrrolo[2,3-d]pyrimidin-4-yl)piperidine-4-carboxamide], for which the IC50 is < 250 nM.

With `Cc1c[nH]c2ncnc(N3CCC(CN)(C(=O)Nc4cccc(F)c4)CC3)c12` [4-(aminomethyl)-N-(3-fluorophenyl)-1-(5-methyl-7H-pyrrolo[2,3-d]pyrimidin-4-yl)piperidine-4-carboxamide], the IC50 was < 250 nM.

Take `Cc1c[nH]c2ncnc(N3CCC(CN)(C(=O)Nc4cccc(O)c4)CC3)c12` [4-(aminomethyl)-N-(3-hydroxyphenyl)-1-(5-methyl-7H-pyrrolo[2,3-d]pyrimidin-4-yl)piperidine-4-carboxamide]: the concentration for half-maximal inhibition (IC50) is < 250 nM.

On to `Cc1c[nH]c2ncnc(N3CCC(CN)(C(=O)Nc4cccc(OC(C)C)c4)CC3)c12` [4-(aminomethyl)-N-(3-isopropoxyphenyl)-1-(5-methyl-7H-pyrrolo[2,3-d]pyrimidin-4-yl)piperidine-4-carboxamide], for which the IC50 was < 250 nM.

For the compound `COc1cccc(NC(=O)C2(CN)CCN(c3ncnc4[nH]cc(C)c34)CC2)c1` [4-(aminomethyl)-N-(3-methoxyphenyl)-1-(5-methyl-7H-pyrrolo[2,3-d]pyrimidin-4-yl)piperidine-4-carboxamide], the IC50 is < 250 nM.

With `Cc1c[nH]c2ncnc(N3CCC(CN)(C(=O)Nc4cccc(C(C)(C)C)c4)CC3)c12` [4-(aminomethyl)-N-(3-tert-butylphenyl)-1-(5-methyl-7H-pyrrolo[2,3-d]pyrimidin-4-yl)piperidine-4-carboxamide], the IC50 is < 250 nM.

Consider `C=CCC1(C(=O)Nc2cccc(Oc3ccc(F)cc3)c2)CCN(c2ncnc3[nH]cc(C)c23)CC1` [4-allyl-N-(3-(4-fluorophenoxy)phenyl)-1-(5-methyl-7H-pyrrolo[2,3-d]pyrimidin-4-yl)piperidine-4-carboxamide], for which the IC50 is < 250 nM.

`C=CCC1(C(=O)Nc2cccc(Br)c2)CCN(c2ncnc3[nH]cc(C)c23)CC1` [4-allyl-N-(3-bromophenyl)-1-(5-methyl-7H-pyrrolo[2,3-d]pyrimidin-4-yl)piperidine-4-carboxamide]: the IC50 was < 250 nM.

In the case of `C=CCC1(C(=O)Nc2cccc(F)c2)CCN(c2ncnc3[nH]cc(C)c23)CC1` [4-allyl-N-(3-fluorophenyl)-1-(5-methyl-7H-pyrrolo[2,3-d]pyrimidin-4-yl)piperidine-4-carboxamide], the IC50 was < 250 nM.

As to `C=CCC1(C(=O)Nc2cccc(OC)c2)CCN(c2ncnc3[nH]cc(C)c23)CC1` [4-allyl-N-(3-methoxyphenyl)-1-(5-methyl-7H-pyrrolo[2,3-d]pyrimidin-4-yl)piperidine-4-carboxamide], the IC50 was < 250 nM.

On to `C=CCC1(C(=O)Nc2cccc(C(C)(C)C)c2)CCN(c2ncnc3[nH]cc(C)c23)CC1` [4-allyl-N-(3-tert-butylphenyl)-1-(5-methyl-7H-pyrrolo[2,3-d]pyrimidin-4-yl)piperidine-4-carboxamide], for which the IC50 was < 250 nM.

For orientation: IC50 means the concentration at which inhibition is half-maximal. Low values mean greater potency, high ones weaker potency.
